According to patent US20220105109A1, “METHODS OF TREATING COVID-19 AND COMPOSITIONS THEREFOR” (priority 2020, published 2022):
Where two headings read alike, the source gives them in different places.

Assays:
[1] = cited from earlier work; for suppressing ACE-inhibitor induced cough: patients
COVID-19 [2] = experiment: Anecdotal case of a subject with COVID-19 taking ASA; format: in vivo; details: one person; at least 0.4 g ASA orally on at least a few days of the approximately 14-day illness; also 80 mg famotidine daily
COVID-19 [3] = details: COVID-19 patients who had been taking famotidine; cited from earlier work

Structure (SMILES)	cough severity and cough frequency ([1]; 500 mg ASA daily)	patients with cough completely abolished ([1]; 500 mg ASA daily)	patients with cough significantly reduced ([1]; 500 mg ASA daily)	suppressing ACE-inhibitor induced cough ([1]; intermediate dose, 500 mg ASA daily)	suppressing ACE-inhibitor induced cough ([1]; low dose, 100 mg ASA daily)	common respiratory symptoms and effects of COVID-19 (shortness of breath, cough) (COVID-19 [2])	clinical outcomes (intubations, deaths, symptoms) vs patients not taking famotidine (COVID-19 [3])
CC(=O)Oc1ccccc1C(=O)O [ASA, acetylsalicylic acid]	Significant reductions	five of 14	13 of 14	extremely effective	ineffective	none of the common respiratory symptoms and effects of COVID-19	–
NC(N)=Nc1nc(CSCCC(N)=NS(N)(=O)=O)cs1 [famotidine]	–	–	–	–	–	–	better outcomes
